Test results: patent US10696615B2, “Prenylated hydroxystilbenes” (The University of Sydney, priority 2011, dated 2020)

Legend:
OVCAR-3 = assay: NCI in vitro cancer screen, Ovarian Cancer; assay type: cell-based, human; settings: OVCAR-3, Ovarian Cancer
HCT-116 = assay: NCI in vitro cancer screen, Colon Cancer; assay type: cell-based, human; settings: HCT-116, Colon Cancer
U251 = assay: NCI in vitro cancer screen, CNS Cancer; assay type: cell-based, human; settings: U251, CNS Cancer
SK-MEL-5 = assay: NCI in vitro cancer screen, Melanoma; assay type: cell-based, human; settings: SK-MEL-5, Melanoma
MCF7 = assay: NCI in vitro cancer screen, Breast Cancer; assay type: cell-based, human; settings: MCF7, Breast Cancer
CAKI-1 = assay: NCI in vitro cancer screen, Renal Cancer; assay type: cell-based, human; settings: CAKI-1, Renal Cancer
OVCAR-5 = assay: NCI in vitro cancer screen, Ovarian Cancer; assay type: cell-based, human; settings: OVCAR-5, Ovarian Cancer
DU-145 = assay: NCI in vitro cancer screen, Prostate Cancer; assay type: cell-based, human; settings: DU-145, Prostate Cancer
SNB-19 = assay: NCI in vitro cancer screen, CNS Cancer; assay type: cell-based, human; settings: SNB-19, CNS Cancer
HT29 = assay: NCI in vitro cancer screen, Colon Cancer; assay type: cell-based, human; settings: HT29, Colon Cancer
UACC-257 = assay: NCI in vitro cancer screen, Melanoma; assay type: cell-based, human; settings: UACC-257, Melanoma
EKVX = assay: NCI in vitro cancer screen, Non-Small Cell Lung Cancer; assay type: cell-based, human; settings: Non-Small Cell Lung Cancer
HOP-62 = assay: as above; assay type: cell-based, human; settings: HOP-62, Non-Small Cell Lung Cancer
OVCAR-4 = assay: NCI in vitro cancer screen, Ovarian Cancer; assay type: cell-based, human; settings: OVCAR-4, Ovarian Cancer
human tumor cell lines = assay: NCI in vitro cancer screen, whole panel (summary statements); assay type: cell-based; settings: result in words
SF-268 = assay: NCI in vitro cancer screen, CNS Cancer; assay type: cell-based, human; settings: SF-268, CNS Cancer
SK-MEL-28 = assay: NCI in vitro cancer screen, Melanoma; assay type: cell-based, human; settings: SK-MEL-28, Melanoma
OVCAR-8 = assay: NCI in vitro cancer screen, Ovarian Cancer; assay type: cell-based, human; settings: OVCAR-8, Ovarian Cancer
KM12 = assay: NCI in vitro cancer screen, Colon Cancer; assay type: cell-based, human; settings: KM12, Colon Cancer
NCI-H23 = assay: NCI in vitro cancer screen, Non-Small Cell Lung Cancer; assay type: cell-based, human; settings: NCI-H23, Non-Small Cell Lung Cancer
SW-620 = assay: NCI in vitro cancer screen, Colon Cancer; assay type: cell-based, human; settings: SW-620, Colon Cancer
MDA-MB-468 = assay: NCI in vitro cancer screen, Breast Cancer; assay type: cell-based, human; settings: MDA-MB-468, Breast Cancer
TK-10 = assay: NCI in vitro cancer screen, Renal Cancer; assay type: cell-based, human; settings: TK-10, Renal Cancer
HOP-92 = assay: NCI in vitro cancer screen, Non-Small Cell Lung Cancer; assay type: cell-based, human; settings: HOP-92, Non-Small Cell Lung Cancer
SF-539 = assay: NCI in vitro cancer screen, CNS Cancer; assay type: cell-based; settings: SF-539, CNS Cancer
NCI-H226 = assay: NCI in vitro cancer screen, Non-Small Cell Lung Cancer; assay type: cell-based, human; settings: NCI-H226, Non-Small Cell Lung Cancer
IGROV1 = assay: NCI in vitro cancer screen, Ovarian Cancer; assay type: cell-based, human; settings: IGROV1, Ovarian Cancer
HS 578T = assay: NCI in vitro cancer screen, Breast Cancer; assay type: cell-based, human; settings: Breast Cancer
[1] = Homo sapiens, read-out: LC50 (the source's name)

CC(C)=CCOc1cc(O)cc(/C=C/c2ccc(O)c(O)c2)c1CC=C(C)C [USYDS14, (E)-2-(3-methyl-2-buten-1-yl)-3-(3-methyl-2-butenyloxy)-3′,4′,5-trihydroxystilbene]
GI50 (OVCAR-3; Homo sapiens): 3.52 µM | CC50 (OVCAR-3; [1]): 41.1 µM | TGI (OVCAR-3): 13.5 µM | TGI (HCT-116): 16 µM | GI50 (HCT-116; Homo sapiens): 4.2 µM | LC50 (concentration killing 50% of cells) (HCT-116; Homo sapiens): 46.6 µM | GI50 (U251; Homo sapiens, U-251): 3.09 µM | CC50 (U251; Homo sapiens, U-251, read-out: LC50 (the source's name)): 39.4 µM | TGI (U251): 12.7 µM | GI50 (SK-MEL-5; Homo sapiens): 0.554 µM | CC50 (SK-MEL-5; [1]): 4.46 µM | TGI (SK-MEL-5): 1.87 µM | GI50 (MCF7; Homo sapiens): 2.74 µM | CC50 (MCF7; [1]): 41.9 µM | TGI (MCF7): 11.8 µM | TGI (CAKI-1): 17.5 µM | GI50 (CAKI-1; Homo sapiens): 3.59 µM | CC50 (CAKI-1; [1]): 45.4 µM | GI50 (OVCAR-5; Homo sapiens): 12.4 µM | CC50 (OVCAR-5; [1]): 53.6 µM | TGI (OVCAR-5): 25.8 µM | TGI (DU-145): 21.1 µM | GI50 (DU-145; Homo sapiens): 8.2 µM | CC50 (DU-145; [1]): 47.5 µM | GI50 (SNB-19; Homo sapiens): 5.01 µM | CC50 (SNB-19; [1]): 52.2 µM | TGI (SNB-19): 20.1 µM | TGI (HT29): 29.1 µM | GI50 (HT29; Homo sapiens, HT-29): 14 µM | CC50 (HT29; Homo sapiens, HT-29, read-out: LC50 (the source's name)): 60.9 µM | GI50 (UACC-257; Homo sapiens): 10.2 µM | CC50 (UACC-257; [1]): 54 µM | TGI (UACC-257): 23.5 µM | GI50 (EKVX; Homo sapiens): 6.45 µM | CC50 (EKVX; [1]): 51.7 µM | TGI (EKVX): 21.2 µM | TGI (HOP-62): 3.77 µM | GI50 (HOP-62; Homo sapiens): 1.43 µM | CC50 (HOP-62; [1]): 9.98 µM | GI50 (OVCAR-4; Homo sapiens): 2.98 µM | CC50 (OVCAR-4; [1]): 38.6 µM | TGI (OVCAR-4): 13.6 µM | inhibition of cancerous cell growth (human tumor cell lines): structure dependent inhibition of cancerous cell growth | GI50 (SF-268; Homo sapiens): 4.65 µM | CC50 (SF-268; [1]): 48.5 µM | TGI (SF-268): 17.8 µM | GI50 (SK-MEL-28; Homo sapiens): 3.05 µM | LC50 (SK-MEL-28; Homo sapiens): 41.6 µM | TGI (SK-MEL-28): 16.4 µM | GI50 (OVCAR-8; Homo sapiens): 3.59 µM | CC50 (OVCAR-8; [1]): 64.9 µM | TGI (OVCAR-8): 15.6 µM | GI50 (KM12; Homo sapiens): 3.74 µM | CC50 (KM12; [1]): 57.4 µM | TGI (KM12): 14.4 µM | GI50 (NCI-H23; Homo sapiens): 2.92 µM | LC50 (NCI-H23; Homo sapiens): 57.6 µM | TGI (NCI-H23): 17.3 µM | GI50 (SW-620; Homo sapiens): 2.88 µM | CC50 (SW-620; [1]): 63.8 µM | TGI (SW-620): 16.7 µM | GI50 (MDA-MB-468; Homo sapiens): 1.42 µM | CC50 (MDA-MB-468; [1]): 16.4 µM | TGI (MDA-MB-468): 4.12 µM | GI50 (TK-10; Homo sapiens): 3.79 µM | LC50 (TK-10; Homo sapiens): 35.4 µM | TGI (TK-10): 12.1 µM | TGI (HOP-92): 7.58 µM | GI50 (HOP-92; Homo sapiens): 1.49 µM | CC50 (HOP-92; [1]): 32.9 µM | GI50 (SF-539; Homo sapiens): 2.96 µM | CC50 (SF-539; [1]): 37.8 µM | TGI (SF-539): 10.5 µM | GI50 (NCI-H226; Homo sapiens): 1.72 µM | LC50 (50% lethal concentration) (NCI-H226; Homo sapiens): 7.52 µM | TGI (NCI-H226): 3.6 µM | GI50 (IGROV1; Homo sapiens, IGROV-1): 3.65 µM | CC50 (IGROV1; Homo sapiens, IGROV-1, read-out: LC50 (the source's name)): 65.4 µM | TGI (IGROV1): 13.7 µM | TGI (HS 578T): 20.5 µM | GI50 (HS 578T; Homo sapiens): 2.71 µM | CC50 (HS 578T; [1]): > 100 µM
